In publication PMC9054772 (RSC Advances, 2020):

Target: T1, HsPKS1 (Huperzia serrata, UniProt A3E7Z7)
T1 sequence (A3E7Z7 1-399): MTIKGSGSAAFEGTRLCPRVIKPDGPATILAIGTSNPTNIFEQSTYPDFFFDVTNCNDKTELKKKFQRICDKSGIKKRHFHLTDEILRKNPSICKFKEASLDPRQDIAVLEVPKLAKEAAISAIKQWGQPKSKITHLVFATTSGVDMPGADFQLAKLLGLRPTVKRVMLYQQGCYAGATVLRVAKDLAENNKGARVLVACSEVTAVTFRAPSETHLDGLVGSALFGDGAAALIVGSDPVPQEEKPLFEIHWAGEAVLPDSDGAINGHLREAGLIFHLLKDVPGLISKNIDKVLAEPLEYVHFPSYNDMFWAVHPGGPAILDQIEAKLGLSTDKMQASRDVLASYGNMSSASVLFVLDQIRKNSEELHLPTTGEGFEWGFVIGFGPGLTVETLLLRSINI
Test: product formation by HPLC / LC-MS
Type: biochemical
Conditions: with malonyl-CoA

In the case of `CC(C)(COP(=O)(O)OP(=O)(O)OC[C@H]1O[C@@H](n2cnc3c(N)ncnc32)[C@H](O)[C@@H]1OP(=O)(O)O)[C@@H](O)C(=O)NCCC(=O)NCCSC(=O)Cc1ccccn1` [2-pyridylacetyl-CoA], the “product formation by HPLC / LC-MS (library screen)” value is reported as “Only two type III PKSs (HsPKS1 and HsPKS3) from H. serrata”.
